According to patent publication US20240270719A1, “CRYSTALLINE FORMS OF 2-(4-(4-(AMINOMETHYL)-1-OXO-1,2-DIHYDROPHTHALAZIN-6-YL)-1-METHYL-1H-PYRAZOL-5-YL)-4-CHLORO-6-CYCLOPROPOXY-3-FLUOROBENZONITRILE” (Mirati Therapeutics, Inc., priority 2023, published 2024):
Structures can show the parent of a compound that is named as a salt.

Key:
[1] = Relative stability of hydrate forms, competitive slurry experiments in IPA/water systems; type: physicochemical
Description: The relative stability between free base Form A, Form B, and Form D was investigated by conducting competitive slurry experiments in isopropyl alcohol (IPA)/water systems at room temperature. […] Further addition of Form A to the experiments verified the result. In systems with αw≥0.37, only Form A was observed after 1 day of stirring at room temperature. Further addition of Form B and Form D to the experiment confirmed the outcome.

[2] = Compressibility, tabletability, compatibility and physical stability under compaction; type: physicochemical
Protocol: The compressibility (i.e., porosity vs compaction pressure), tabletability (i.e., tensile strength vs compaction pressure), and compatibility (i.e. tensile strength vs porosity) of Free Base Form A of Compound 1 was measured.

[3] = Excipient compatibility, total impurity content of binary mixtures by HPLC; type: physicochemical; details: 40° C./75% RH, 8 weeks; for Compatibility with excipients (total impurity content): binary mixtures, open condition; for Risk of chemical stability: with excipients
Description: Binary mixtures of samples were created by mixing the substance and the excipients (1:10 Compound to Excipients for fillers and 1:1 for all other excipients) using a mortar and pestle and the resultant mixture was accurately weighed and transferred into sample vials. The excipients used were as follows: colloidal silicon dioxide 200, croscarmellose sodium, crosprovidone XL-10, dibasic calcium phosphate (an), hydroxypropyl cellulose, lactose monohydrate, magnesium stearate, mannitol 100SD, MCC PH102, Opadry™ 11, povidone K-30, pregelatinized starch 1500, sodium starch glycolate, and sodium stearyl fumarate. The sample vials were set down at 40° C./75% RH condition for 8 weeks in open condition before analyzing their impurity levels using HPLC.

[4] = Pharmacokinetics after oral capsule administration to dogs pre-treated with pentagastrin or famotidine; type: in vivo, male beagle dogs; details: 100 mg/dog, particle size normalized
Protocol: The substances were filled into Empty HPMC Capsules after correcting for potency and administered to dogs pre-treated with either pentagastrin or famotidine along with 40 mL of water. Pentagastrin enhances gastric secretions whereas famotidine neutralizes gastric sections. Therefore, pentagastrin and famotidine pre-treatments were used to simulate the impact of gastric pH on bioavailability and reduce the variability in gastric pH between dogs.
Plasma samples were collected at pre-defined intervals and analyzed for the concentration of Compound 1. The plasma concentration versus time data was analyzed by non-compartmental approaches using Win Nonlin software program to estimate PK parameters such as Cmax, Tmax, AUC0-t and AUC0-inf.

[5] = Intrinsic dissolution rate and drug in capsule dissolution in FaSSGF and FaSSIF; type: physicochemical
Protocol: The IDR rate was calculated using the slope of the linear curve divided by the surface area of tablet (0.5 cm^2). […] 0.6 mL liquid was removed with a syringe at each time point and filtered. The concentration of filtrates was analyzed by HPLC.

SMILES	Conversion rate in competitive slurry ([1]; αw=0.13, compared with higher water activities)	Form conversion in competitive slurry ([1]; αw=0.13, room temperature)	Compatibility (tensile strength vs porosity) [2]	Compressibility (porosity vs compaction pressure) [2]	Tabletability (tensile strength vs compaction pressure) [2]	Loss of crystallinity (XRPD before and after compression) ([2]; high compaction pressures)	Compatibility with excipients (total impurity content) [3]	Sensitivity to individual excipients (total impurity content) ([3]; colloidal silicon dioxide and lactose monohydrate, open)	Risk of chemical stability ([3]; open)	Exposure (plasma AUC) compared with HCl salt [4]	Dissolution in gastric media ([5]; 37° C., 50 rpm)	Supersaturation in intestinal fluid ([5]; pH shifted from gastric to intestinal after 30 minutes)	Dissolution rate in intestinal media ([5]; intestinal media, 37° C., 50 rpm)
Cn1ncc(-c2ccc3c(=O)[nH]nc(CN)c3c2)c1-c1c(F)c(Cl)cc(OC2CC2)c1C#N [Form B, 2-(4-(4-(aminomethyl)-1-oxo-1,2-dihydrophthalazin-6-yl)-1-methyl-1H-pyrazol-5-yl)-4-chloro-6-cyclopropoxy-3-fluorobenzonitrile]	slightly slower than those at higher water activities	converted to Form A eventually											
Cn1ncc(-c2ccc3c(=O)[nH]nc(CN)c3c2)c1-c1c(F)c(Cl)cc(OC2CC2)c1C#N [Free Base Form A, 2-(4-(4-(aminomethyl)-1-oxo-1,2-dihydrophthalazin-6-yl)-1-methyl-1H-pyrazol-5-yl)-4-chloro-6-cyclopropoxy-3-fluorobenzonitrile]			good	good	good	No apparent loss of crystallinity	good compatibility with excipients	more sensitive to colloidal silicon dioxide and lactose monohydrate than HCl Form B	slightly higher	equivalent exposure to HCl salt	faster dissolution in gastric media	able to maintain super saturation in intestinal fluid	
Cn1ncc(-c2ccc3c(=O)[nH]nc(CN)c3c2)c1-c1c(F)c(Cl)cc(OC2CC2)c1C#N [HCl Form B]							good compatibility with excipients		slightly higher		common ion effect slowing dissolution		slightly faster dissolution rate than Free Base Form A
